System: mice marrow cells
Protocol: The study objective was detection and quantitative estimate of cytogenetic (mutagenic) activity of pharmacologic substances in polychromatophil cells (PCC) of mammal marrow. The method is based on microscopic recording of cells with micronuclei.
The experiments were performed to 2 months old male and female F1 (CBAx C57BI6/J) cross-breed mice weighing 18-20 g. Each group included 6 animals. The animals were kept at 12 hours light pattern with free food and water access. Animal experiments for assessment of mutagenic properties of the PPNC with single and five-time dosing were conducted in compliance with official records. Three sessions of experiments were carried out with corresponding controls: therapeutic dose was tested on male animals with a single introduction; subtoxic dose was tested on male animals with a single introduction; therapeutic dose was tested on male animals with a single introduction; subtoxic dose was tested on male animals and female with five-time introduction. […] The PPNC dosing for assessment of mutagenic activity was calculated based on the maximum human recommended daily therapeutic dose (TD). […] In order to calculate an experiment dosing for mice, a conversion factor is recommended that takes into account a human or animal body surface area to weight ratio. In our study, it was 8.33. Therefore, the mice TD was approximately 8.33 x human TD (0.42 mg/kg).
As a subtoxic dose, 10mg/kg, the maximum possible in this experiment conditions dosing was used, as the substance was presented in 0.1 mg/ml concentration, and the normally used amount of substance for mice is 0.1 ml per 10 g.
Seven animal groups were formed: four experimental groups and three corresponding reference groups. The substance in the amount of 0.1 mg/kg was introduced five times at 24 hours interval to males and females. […]
Marrow cell preparations for micronuclei count were made by a standard method in compliance with common guidelines [20]. […] 2,000 polychromatophil cells from each animal were analyzed in encoded preparations. […]

`O=P1(N(CCCl)CCCl)NCCCO1` (stereo not drawn) [Cyclophosphamide, cyclophosphamide] was tested, and the “frequency of micronucleus cells” value (20 mg/kg intraperitoneally, male mice, 3.16 % in reference) was 62.1%, the “increased frequency of micronucleus cells” value (20 mg/kg intraperitoneally, male mice, P<0.001) was 19.6 times and the “polychromatophilic to normochromatic erythrocytes ratio” value (20 mg/kg, compared to control P<0.005) was “found to shift to the latter”.

— patent publication EP2730584B1, “PROTEIN-P[…] OBTAINED FROM NERVOUS TISSUE OF HOOFED LIVESTOCK EMBRYOS, PROCESS FOR PREPARING SAME AND PHARMACEUTICAL COMPOSITION” (Aktsionernoe Obschestvo "Pharm-Sintez", priority 2011, dated 2012)
